Experimental data from the supplement of paper PMC10307832.

Assays:
Assay in all cases: relative viability (nuclei count vs DMSO), 5 days (fraction); higher = more cells survive
NCI-H358 = tested on: NCI-H358
In short: (§1)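 Relative viability equals treated-well nuclei counts divided by vehicle-well nuclei counts. Counts came from 4× images of lung cancer cell lines grown in 1536-well plates for 5 days after pin-tool dosing on the day after seeding. Dosing used one drug alone or a fixed anchor-drug dose plus five library-drug doses (not always all listed) in √10 steps, and values are medians of duplicate plates.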

LC-2-ad = tested on: LC-2-ad
In short: as §1

NCI-H460 = tested on: NCI-H460
In short: as §1

HCC-78 = tested on: HCC-78
In short: as §1

NCI-H1975 = tested on: NCI-H1975
In short: as §1

SW 1573 = tested on: SW 1573
In short: as §1

LOU-NH91 = tested on: LOU-NH91
In short: as §1

NCI-H1915 = tested on: NCI-H1915
In short: as §1

A-427 = tested on: A-427
In short: as §1

NCI-H647 = tested on: NCI-H647
In short: as §1

SK-LU-1 = tested on: SK-LU-1
In short: as §1

HOP-62 = tested on: HOP-62
In short: as §1

NCI-H1755 = tested on: NCI-H1755
In short: as §1

HCC-15 = tested on: HCC-15
In short: as §1

NCI-H2126 = tested on: NCI-H2126
In short: as §1

PC-3 [JPC-3] = tested on: PC-3 [JPC-3]
In short: as §1

NCI-H2228 = tested on: NCI-H2228
In short: as §1

NCI-H2347 = tested on: NCI-H2347
In short: as §1

RERF-LC-KJ = tested on: RERF-LC-KJ
In short: as §1

NCI-H1734 = tested on: NCI-H1734
In short: as §1

LXF-289 = tested on: LXF-289
In short: as §1

NCI-H1792 = tested on: NCI-H1792
In short: as §1

With `CC(C)Oc1cc(Nc2nc(N[C@@H](C)c3ccc(F)cn3)ncc2Cl)n[nH]1` [AZ23] + CS(=O)(=O)N1CCN(Cc2cc3nc(-c4cccc5[nH]ncc45)nc(N4CCOCC4)c3s2)CC1 [Pictilisib] (partner 1 µM) the relative viability (NCI-H358; first compound 0.01 µM) was 0.404, the relative viability (NCI-H358; first compound 0.03162 µM) was 0.329 and the relative viability (NCI-H358; first compound 0.3162 µM) was 0.324. The relative viability (LC-2-ad; first compound 0.01 µM) was 0.386, the relative viability (LC-2-ad; first compound 0.03162 µM) was 0.574 and the relative viability (LC-2-ad; first compound 0.3162 µM) was 0.357. It also gave a relative viability (NCI-H460; first compound 0.01 µM) of 0.3, a relative viability (NCI-H460; first compound 0.03162 µM) of 0.567 and a relative viability (NCI-H460; first compound 0.3162 µM) of 0.348. The relative viability (HCC-78; first compound 0.01 µM) was 0.192, the relative viability (HCC-78; first compound 0.03162 µM) was 0.195 and the relative viability (HCC-78; first compound 0.3162 µM) was 0.195. For the same molecule, the relative viability (NCI-H1975; first compound 0.01 µM) was 0.307, the relative viability (NCI-H1975; first compound 0.03162 µM) was 0.327 and the relative viability (NCI-H1975; first compound 0.3162 µM) was 0.298. The relative viability (SW 1573; first compound 0.01 µM) was 0.674, the relative viability (SW 1573; first compound 0.03162 µM) was 0.606 and the relative viability (SW 1573; first compound 0.3162 µM) was 0.455. It also gave a relative viability (LOU-NH91; first compound 0.01 µM) of 0.483, a relative viability (LOU-NH91; first compound 0.03162 µM) of 0.525 and a relative viability (LOU-NH91; first compound 0.3162 µM) of 0.528. For the same molecule, the relative viability (NCI-H1915; first compound 0.01 µM) was 0.988, the relative viability (NCI-H1915; first compound 0.03162 µM) was 0.979 and the relative viability (NCI-H1915; first compound 0.3162 µM) was 0.945. It also gave a relative viability (A-427; first compound 0.01 µM) of 0.819, a relative viability (A-427; first compound 0.03162 µM) of 0.716 and a relative viability (A-427; first compound 0.3162 µM) of 0.62. The relative viability (NCI-H647; first compound 0.03162 µM) was 0.5, the relative viability (NCI-H647; first compound 0.3162 µM) was 0.447 and the relative viability (SK-LU-1; first compound 0.01 µM) was 0.408. The relative viability (SK-LU-1; first compound 0.03162 µM) was 0.599, the relative viability (SK-LU-1; first compound 0.3162 µM) was 0.553 and the relative viability (HOP-62; first compound 0.01 µM) was 0.635. The relative viability (HOP-62; first compound 0.03162 µM) was 1.11, the relative viability (HOP-62; first compound 0.3162 µM) was 0.874 and the relative viability (NCI-H1755; first compound 0.01 µM) was 0.41. For the same molecule, the relative viability (NCI-H1755; first compound 0.03162 µM) was 0.478, the relative viability (NCI-H1755; first compound 0.3162 µM) was 0.464 and the relative viability (HCC-15; first compound 0.01 µM) was 0.968. It also gave a relative viability (HCC-15; first compound 0.03162 µM) of 0.73, a relative viability (HCC-15; first compound 0.3162 µM) of 0.782 and a relative viability (NCI-H2126; first compound 0.01 µM) of 0.485. It also gave a relative viability (NCI-H2126; first compound 0.03162 µM) of 0.514, a relative viability (NCI-H2126; first compound 0.3162 µM) of 0.452 and a relative viability (PC-3 [JPC-3]; first compound 0.01 µM) of 0.807. For the same molecule, the relative viability (PC-3 [JPC-3]; first compound 0.03162 µM) was 0.833, the relative viability (PC-3 [JPC-3]; first compound 0.3162 µM) was 0.807 and the relative viability (NCI-H2228; first compound 0.01 µM) was 0.523. The relative viability (NCI-H2228; first compound 0.03162 µM) was 0.346, the relative viability (NCI-H2228; first compound 0.3162 µM) was 0.394 and the relative viability (NCI-H2347; first compound 0.01 µM) was 0.525. It also gave a relative viability (NCI-H2347; first compound 0.03162 µM) of 0.681, a relative viability (NCI-H2347; first compound 0.3162 µM) of 0.543 and a relative viability (RERF-LC-KJ; first compound 0.01 µM) of 0.546. For the same molecule, the relative viability (RERF-LC-KJ; first compound 0.03162 µM) was 0.507, the relative viability (RERF-LC-KJ; first compound 0.3162 µM) was 0.502 and the relative viability (NCI-H1734; first compound 0.01 µM) was 0.429. The relative viability (NCI-H1734; first compound 0.03162 µM) was 0.543, the relative viability (NCI-H1734; first compound 0.3162 µM) was 0.487 and the relative viability (LXF-289; first compound 0.01 µM) was 0.969. For the same molecule, the relative viability (LXF-289; first compound 0.03162 µM) was 0.818, the relative viability (LXF-289; first compound 0.3162 µM) was 0.788 and the relative viability (NCI-H1792; first compound 0.01 µM) was 0.248. For the same molecule, the relative viability (NCI-H1792; first compound 0.03162 µM) was 0.291 and the relative viability (NCI-H1792; first compound 0.3162 µM) was 0.302.

In the case of `CC(C)Oc1cc(Nc2nc(N[C@@H](C)c3ccc(F)cn3)ncc2Cl)n[nH]1` [AZ23] + CS(=O)(=O)CCNCc1ccc(-c2ccc3ncnc(Nc4ccc(OCc5cccc(F)c5)c(Cl)c4)c3c2)o1 [Lapatinib] (partner 2 µM), the relative viability (NCI-H358; first compound 0.01 µM) is reported as 0.505, the relative viability (NCI-H358; first compound 0.03162 µM) is reported as 0.433 and the relative viability (NCI-H358; first compound 0.3162 µM) is reported as 0.392. It also gave a relative viability (LC-2-ad; first compound 0.01 µM) of 1.32, a relative viability (LC-2-ad; first compound 0.03162 µM) of 0.997 and a relative viability (LC-2-ad; first compound 0.3162 µM) of 0.912. For the same molecule, the relative viability (NCI-H460; first compound 0.01 µM) was 0.519, the relative viability (NCI-H460; first compound 0.03162 µM) was 1.1 and the relative viability (NCI-H460; first compound 0.3162 µM) was 1.5. The relative viability (HCC-78; first compound 0.01 µM) was 0.469, the relative viability (HCC-78; first compound 0.03162 µM) was 1 and the relative viability (HCC-78; first compound 0.3162 µM) was 0.456. The relative viability (NCI-H1975; first compound 0.01 µM) was 1.27, the relative viability (NCI-H1975; first compound 0.03162 µM) was 0.961 and the relative viability (NCI-H1975; first compound 0.3162 µM) was 0.862. It also gave a relative viability (SW 1573; first compound 0.01 µM) of 1.21, a relative viability (SW 1573; first compound 0.03162 µM) of 1.11 and a relative viability (SW 1573; first compound 0.3162 µM) of 0.939. The relative viability (LOU-NH91; first compound 0.01 µM) was 0.674, the relative viability (LOU-NH91; first compound 0.03162 µM) was 0.787 and the relative viability (LOU-NH91; first compound 0.3162 µM) was 0.716. For the same molecule, the relative viability (NCI-H1915; first compound 0.01 µM) was 1.12, the relative viability (NCI-H1915; first compound 0.03162 µM) was 0.972 and the relative viability (NCI-H1915; first compound 0.3162 µM) was 1.01. It also gave a relative viability (A-427; first compound 0.01 µM) of 1.24, a relative viability (A-427; first compound 0.03162 µM) of 1.02 and a relative viability (A-427; first compound 0.3162 µM) of 1.03. The relative viability (NCI-H647; first compound 0.01 µM) was 1.71, the relative viability (NCI-H647; first compound 0.03162 µM) was 1.27 and the relative viability (NCI-H647; first compound 0.3162 µM) was 1.34. For the same molecule, the relative viability (SK-LU-1; first compound 0.01 µM) was 0.929, the relative viability (SK-LU-1; first compound 0.03162 µM) was 1.06 and the relative viability (SK-LU-1; first compound 0.3162 µM) was 1.06. For the same molecule, the relative viability (HOP-62; first compound 0.01 µM) was 1.14, the relative viability (HOP-62; first compound 0.03162 µM) was 0.985 and the relative viability (HOP-62; first compound 0.3162 µM) was 0.966. For the same molecule, the relative viability (NCI-H1755; first compound 0.01 µM) was 1.28, the relative viability (NCI-H1755; first compound 0.03162 µM) was 1.16 and the relative viability (NCI-H1755; first compound 0.3162 µM) was 1.05. It also gave a relative viability (HCC-15; first compound 0.01 µM) of 1.08, a relative viability (HCC-15; first compound 0.03162 µM) of 0.839 and a relative viability (HCC-15; first compound 0.3162 µM) of 0.784. The relative viability (NCI-H2126; first compound 0.01 µM) was 0.838, the relative viability (NCI-H2126; first compound 0.03162 µM) was 0.821 and the relative viability (NCI-H2126; first compound 0.3162 µM) was 0.842. For the same molecule, the relative viability (PC-3 [JPC-3]; first compound 0.01 µM) was 0.464, the relative viability (PC-3 [JPC-3]; first compound 0.03162 µM) was 0.489 and the relative viability (PC-3 [JPC-3]; first compound 0.3162 µM) was 0.454. For the same molecule, the relative viability (NCI-H2228; first compound 0.01 µM) was 1.51, the relative viability (NCI-H2228; first compound 0.03162 µM) was 0.867 and the relative viability (NCI-H2228; first compound 0.3162 µM) was 0.992. For the same molecule, the relative viability (NCI-H2347; first compound 0.01 µM) was 1.05, the relative viability (NCI-H2347; first compound 0.03162 µM) was 1.02 and the relative viability (NCI-H2347; first compound 0.3162 µM) was 1.02. It also gave a relative viability (RERF-LC-KJ; first compound 0.01 µM) of 0.965, a relative viability (RERF-LC-KJ; first compound 0.03162 µM) of 1.15 and a relative viability (RERF-LC-KJ; first compound 0.3162 µM) of 0.881. For the same molecule, the relative viability (NCI-H1734; first compound 0.01 µM) was 1.27, the relative viability (NCI-H1734; first compound 0.03162 µM) was 1.23 and the relative viability (NCI-H1734; first compound 0.3162 µM) was 1.11. The relative viability (LXF-289; first compound 0.01 µM) was 1.01, the relative viability (LXF-289; first compound 0.03162 µM) was 0.932 and the relative viability (LXF-289; first compound 0.3162 µM) was 0.884. For the same molecule, the relative viability (NCI-H1792; first compound 0.01 µM) was 1.17, the relative viability (NCI-H1792; first compound 0.03162 µM) was 1.13 and the relative viability (NCI-H1792; first compound 0.3162 µM) was 0.995.
